The subject of one experiment is glycerol-induced AKI. The experiment is described as follows: Mouse model for acute kidney injury (glycerol-induced): serum creatinine, BUN, proteinuria. It is filed as in vivo. Conditions: for blood urea nitrogen (BUN) level in serum / serum creatinine level: glycerol IM, compound 2 (5 mg/kg) or compound 8 (2.5 mg/kg) IP at 1, 6 and 24 hrs post glycerol, vs glycerol controls. The text has this:
Mouse model for acute kidney injury. Eight to ten weeks old male C57 BL/6J mice (n=5-7 per group, male and female) were utilized to induce acute kidney injury. Animals were randomized before treatment. Littermates or co-housed animals were chosen for this study. The mice were kept without water but unlimited access to chow for −24 hrs. In first study, nine ml per kg body weight of 1:1 diluted glycerol was intramuscularly injected followed by intraperitoneal administration of either compound 2 (5 mg/kg) or compound 8 (2.5 mg/kg body weight) at 1, 6 and 24 hrs post glycerol dosing. In a second study, AVR-48 was injected either at 5.0 mg/kg/dose or 10 mg/kg/dose IP after 3 h of glycerol administration and was dosed 2/day for 3 days (total 7 doses) and survival was monitored till 8 days. Proteinuria was measured in urine at 24 hrs before sacrifice of the animals by an albustix proteinuria strip. The mice were sacrificed, and bloods were collected by heart puncture. Serum samples were stored at −80° C. for future use. Kidney, spleens, lungs and liver were immediately fixed in 10% buffered formalin for histopathological analysis. Part of the kidney were snap frozen for RNA isolation. To evaluate the effect of AVR-48 and AVR-123 on acute kidney injury, the inventors measured the vital parameters of kidney injury, i.e., levels of creatinine and blood urea nitrogen (BUN) in the serum of animals treated with AVR-48 and AVR-123 along with glycerol treated positive controls. PBS treated animals were considered as sham. […] N=4-7 mice. *p=0.02, **p=0.00′7, and ***p=0.0004, One-way ANOVA, Dunnett's multiple comparison test. […] N=4-7 mice, each sample run in duplicates. ****p<0.0001, One-way ANOVA, Dunnett's multiple comparison test.

Experiment [1] deals with glycerol induced rhabdomyolysis model. The experiment is described as follows: Survival in glycerol induced rhabdomyolysis model. It counts as in vivo, mouse. The note with it: 10 mg/kg/dose IP from 3 h after glycerol, 2/day for 3 days; monitored till 8 days; vs glycerol+saline, p<0.05. The text has this: (§1) Mouse model for acute kidney injury. Eight to ten weeks old male C57 BL/6J mice (n=5-7 per group, male and female) were utilized to induce acute kidney injury. Animals were randomized before treatment. Littermates or co-housed animals were chosen for this study. The mice were kept without water but unlimited access to chow for −24 hrs. In first study, nine ml per kg body weight of 1:1 diluted glycerol was intramuscularly injected followed by intraperitoneal administration of either compound 2 (5 mg/kg) or compound 8 (2.5 mg/kg body weight) at 1, 6 and 24 hrs post glycerol dosing. In a second study, AVR-48 was injected either at 5.0 mg/kg/dose or 10 mg/kg/dose IP after 3 h of glycerol administration and was dosed 2/day for 3 days (total 7 doses) and survival was monitored till 8 days.
FIG. 9 is a graph showing survival curve of the mouse in a glycerol induced rhabdomyolysis model when dosed after 3 h of glycerol administration.

The subject of experiment [2] is mechanical ventilator induced kidney injury. The experiment is described as follows: Preterm lamb model of mechanical ventilator induced kidney injury: renal cortical histology. Conditions: 3.0 mg/Kg twice daily IV during mechanical ventilation, vs vehicle (saline). It counts as in vivo. On the procedure:
(§2) A unique PT lamb model, developed by Dr. Albertine (University of Utah), was used to emulate the clinical setting for PT human infants with respiratory failure related to premature birth before the lungs are mature enough to support extra-uterine life.
(§3) A dose range-finding study was conducted with the goal of treating 2-3 PT lambs with either a vehicle control or AVR-48 (compound 8, 3mg/kg/dose) by twice daily intravenous infusions during 6 to 7 days of mechanical ventilation, followed by transition to noninvasive respiratory support (NIS) for 3 days, for a total of 10 days of management of these PT lambs. AVR-48 was not given during the period of noninvasive respiratory support to assess short-term persistence of effect of AVR-48. Detailed methods have been published previously by Reyburn et al. and Null et al (Reyburn, Li et al. 2008, Null, Alvord et al. 2014), relevant portions incorporated herein by reference. All protocols have been adhered to APS/NIH guidelines for animal research and have been approved by the Institution Animal Care and Use Committees (IACUC) at the University of Utah.
FIGS. 11A and 11B compare renal cortical histology from the preterm lamb treated with 3.0 mg/Kg of AVR-48 (FIG. 11A) versus the vehicle-treated lamb (saline; FIG. 11B). Renal cortical histology is normal in the 3.0 mg/Kg AVR-48-treated lamb. […]

The subject of a further experiment is IL-1β. The experiment is described as follows: RT-PCR of kidney tissue, glycerol-treated mice: IL-1β. It is filed as in vivo, mouse. Conditions: whole kidney tissue, RT-PCR vs GAPDH.
Description: as §1
(§4) The mice were sacrificed, and bloods were collected by heart puncture. Serum samples were stored at −80° C. for future use. Kidney, spleens, lungs and liver were immediately fixed in 10% buffered formalin for histopathological analysis. Part of the kidney were snap frozen for RNA isolation.
(§5) RNA isolation and RT-PCR. RNA was isolated from snap-frozen kidney samples by using RNA plus micro kit (Qiagen) according to manufacturer's instruction. c-DNA were prepared by Quanta-Bio-C-DNA kit. […] The expression of various genes was analyzed in comparison to GAPDH. […]

Another experiment has as its system hemeoxygenase-1 (OH-1). In words: RT-PCR of kidney cortical tissue, glycerol-treated mice: hemeoxygenase-1. It is filed as in vivo, mouse. Conditions: kidney cortical tissue (FIG. 7A); vs glycerol.
Description: as §1, §4, §5

The next experiment concerns IL-10. In words: RT-PCR of kidney tissue, glycerol-treated mice: IL-10. It counts as in vivo, mouse.
Description: as §1, §4
RNA isolation and RT-PCR. […] The expression of various genes was analyzed in comparison to GAPDH.
FIGS. 6A and 6B are graphs that show the level of the anti-inflammatory cytokine IL-10 in the whole kidney tissue (FIG. 6A) and in kidney cortex tissue (FIG. 6B) with or without AVR-48 treatment as determined by RT-PCR experiment. […]

The next experiment concerns cyclooxygenase-2 (Cox-2). The experiment is described as follows: RT-PCR of whole kidney tissue, glycerol-treated mice: Cox-2 mRNA. It counts as in vivo, mouse. Conditions: vs glycerol injection.
Description: as §1, §4
RNA isolation and RT-PCR. RNA was isolated from snap-frozen kidney samples by using RNA plus micro kit (Qiagen) according to manufacturer's instruction. c-DNA were prepared by Quanta-Bio-C-DNA kit. […] The expression of various genes was analyzed in comparison to GAPDH.

A further experiment has as its system TNF-α. In words: RT-PCR of kidney tissue, glycerol-treated mice: TNF-α. Conditions: whole kidney tissue, RT-PCR vs GAPDH. It is filed as in vivo, mouse.
Description: as §1, §4, §5

The subject of the next experiment is NGAL. In words: RT-PCR of kidney cortical tissue, glycerol-treated mice: NGAL. It counts as in vivo, mouse. The note with it: kidney cortical tissue (FIG. 7B); vs glycerol.
Description: as §1, §4, §5

Experiment [3] deals with mechanical ventilator induced kidney injury. In words: Preterm lamb model of mechanical ventilator induced kidney injury: BUN. Conditions: day 10, after 7 days of treatment on invasive mechanical ventilator. It is filed as in vivo. On the procedure: as §2, §3
Fetal lamb is term lamb control. N=2-3, **p<0.01, *** student t test (2-tailed), Dunnett's multiple comparison test.

For experiment [4], the system named is glycerol induced damage of kidney tissues. The experiment is described as follows: H/E staining of mouse whole kidney tissue after glycerol. It counts as in vivo. The note with it: N=5.
Description: as §1, §4

For `CC(=O)N[C@@H]1C(Oc2ccc([N+](=O)[O-])cc2)OC(CO)C(O)C1O` (stereo partly shown) [AVR-48], in the experiment with glycerol-induced AKI, the “blood urea nitrogen (BUN) level in serum” value is listed as “significantly reduced” and the serum creatinine level entry is recorded as “significantly reduced”. The total proteinuria level result in the experiment with glycerol-induced AKI (urine at 24 hrs, albustix proteinuria strip, vs glycerol treated mice) is “decreased proteinuria levels”. In addition, the survival entry in experiment [1] is “significant difference in survival”. For the same compound, the renal cortical histology entry in experiment [2] is “normal”. Further, in the experiment with IL-1β, the “level of IL-1β in kidney tissue” value is “significantly decreased the level”. In addition, in the experiment on hemeoxygenase-1 (OH-1), the “level of hemeoxygenase-1 (OH-1) in kidney cortical tissue” value is listed as “decreased the level significantly”. The “level of IL-10 in kidney cortex tissue” value in the experiment on IL-10 (kidney cortex tissue, RT-PCR (FIG. 6B), vs glycerol treated group) was “decreased the level and brought it back close to normal”. Further, the “level of IL-10 in whole kidney tissue” value with IL-10 (whole kidney tissue, RT-PCR (FIG. 6A)) was “significantly high”. Further, the “Cox-2 mRNA level in whole kidney tissue” value with cyclooxygenase-2 (Cox-2) is on record as “decreased significantly”. Moreover, the “level of TNF-α in kidney tissue” value with TNF-α is “significantly decreased the level”. The “level of NGAL in kidney cortical tissue” value in the experiment on NGAL is “decreased”. Also, in [3], the “BUN at day 10” value is recorded as “decreased BUN”. For the same compound, in experiment [4], the “H/E staining of whole kidney tissue” value is “significant protection of kidney tissues”.

In the case of `CC(=O)NC1[C@H](Oc2ccc(C(=O)N[C@@H]3OC(COC(C)=O)[C@@H](OC(C)=O)[C@H](OC(C)=O)C3NC(C)=O)cc2)OC(CO)[C@@H](O)[C@@H]1O` (stereo partly shown) [AVR-123], in the experiment on glycerol-induced AKI, the “blood urea nitrogen (BUN) level in serum” value is recorded as “significantly reduced” and the serum creatinine level entry was “significantly reduced”.

The record behind these values is patent publication US20220241306A1, “CHITIN ANALOGS FOR THE TREATMENT OF KIDNEY DISEASES” (AyuVis Research, Inc., priority 2021, published 2022).
